Series [1] is filed under the species Mus musculus. Briefly: Contraceptive effect in mouse model of contraception. It is filed as functional.
A short description of series [2]: Inhibition of sperm motility in human Spermatozoa assessed as remaining progressive sperm motility relative to control. It is filed as functional.
Series [3] in a line: Inhibition of sperm motility in human Spermatozoa incubated for 1 to 2 hrs by computer assisted sperm analysis. The format is functional, cell-based.
The nature of series [4]: Half life in cynomolgus monkey at 1 mg/kg, iv administered as single infusion dose. The format is ADME, organism-based, Macaca fascicularis. The note with it: in vivo.

The compound `Cc1ccc(C2=CC(C)(C)Oc3ccc(-c4ccc(-c5ccc(C(=O)[O-])cc5)[nH]4)cc32)cc1.[Na+]` registered an Activity in series [1] greater than 99%.
For the compound `COC(=O)NNc1nc(Nc2ccc(NC(C)=O)c(O)c2)nc(SCC(=O)O)n1`, the Activity in series [2] is given as less than 20%. Further, the IC50 – broadly, the midpoint of a concentration-inhibition curve – in series [3] worked out at 200 µM. The half-life (commonly how long it takes for the measured level to halve) in series [4] is less than 12 min.

For the origin of these results see ChEMBL document CHEMBL5346865, “Male contraceptive development: A medicinal chemistry perspective” (Eur J Med Chem, 2022).
